Source: patent publication US20130005650A1 (priority 2011, published 2013)

What was measured:
amyloid fibrils = molecular target: T1, amyloid fibrils (Homo sapiens, UniProt P05067); test: Incubation of acriflavine with amyloid fibrils (fibril dissociation); type: biochemical; conditions: in vitro
T1 construct: effective to reduce or reverse amyloid fibril formation (Aβ42 fibrillogenesis) in vitro

[1] = molecular target: yeast prion protein Sup-NM (Saccharomyces cerevisiae, UniProt P05453); type: biochemical; conditions: thioflavin T fluorescence, 25° C.
Sequence of yeast prion protein Sup-NM (P05453 1-254 limits assumed): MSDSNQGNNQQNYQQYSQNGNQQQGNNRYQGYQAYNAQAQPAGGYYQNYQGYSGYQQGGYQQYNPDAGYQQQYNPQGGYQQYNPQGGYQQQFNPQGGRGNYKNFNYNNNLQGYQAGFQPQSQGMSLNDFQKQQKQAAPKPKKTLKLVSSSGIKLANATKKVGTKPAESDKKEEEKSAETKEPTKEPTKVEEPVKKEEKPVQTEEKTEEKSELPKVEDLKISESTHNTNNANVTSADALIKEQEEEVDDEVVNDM

[2] = system: PSI^+ induction in yeast cells; test: PSI^+ induction assay in yeast; type: cell-based; conditions: FIG. 2; 24 h, 50 μM copper sulfate, 30° C.
[3] = human; cited from earlier work
[4] = molecular target: T2, Aβ42 fibrillogenesis (amyloid peptide) (Homo sapiens, UniProt P05067); test: Congo Red spectrophotometric assay of amyloid fibrillogenesis; type: biochemical
T2 construct: purchased Invitrogen (Camarillo, Calif.)
T2 sequence (P05067 672-713 limits assumed): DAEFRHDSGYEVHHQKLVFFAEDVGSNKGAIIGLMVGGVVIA
Source text: In addition, the inhibition of the oligomerization of amyloid peptide (inhibition of amyloid fibrillogenesis) can be estimated by the method described by Klunk, et al. using Congo Red (Klunk, W. E., Jacob, R. F., Mason, R. P. (1999) “Quantifying amyloid β-peptide aggregation using the congo red-Aβ spectrophotometric assay” Anal. Biochem. 266:66-76).
The inhibition of the oligomerization of amyloid peptide was estimated by the method described by Klunk, et al. using Congo Red (Klunk, W. E., Jacob, R. F., Mason, R. P. (1999) “Quantifying amyloid β-peptide aggregation using the congo red-Aβ spectrophotometric assay” Anal. Biochem. 266, 66-76). Briefly, amyloid peptides were prepared in 40 μM in Tris-Acetate (40 mM:8 mM) buffer. Acriflavine HCl to be tested for inhibition of fibrillogenesis was dissolved in phosphate buffered saline, and then diluted 100 fold into Tris-Acetate buffer. Aliquots of 100 μl of amyloid peptide were incubated with acriflavine at room temperature for 5 days before measuring the absorbance. BSA was included in the buffer as a negative control. […] The absorbance of Congo Red at 541 nm was read using a Perkin-Elmer Victor3 1420 Multilabel Counter. The inhibition of oligomerization was calculated using the following formula: Inhibition=(Abs541 of sample-Abs541 of control)/(Abs541 of Amyloid peptide-Abs541 of BSA).

[5] = cited from earlier work
microorganisms = conditions: generally; cited from earlier work

T1 sequence (P05067 672-713 limits assumed): as above

## acriflavine
Amyloid fibrils
  amount of amyloid peptide monomer after incubation with amyloid fibrils: increase in the amount of amyloid peptide monomer
[1]
  inhibition of amyloid formation of yeast prion protein Sup-NM: inhibit in a dose-dependent manner
[2]
  inhibition of PSI^+ induction in yeast cells: concentration dependent inhibition
[3]
  crossing of the blood-brain barrier: able to cross the blood-brain barrier

## Acriflavine HCl
[4]; FIG. 1, Aβ42
  inhibition of amyloid fibrillogenesis: concentration-dependent inhibition
[4]; amyloid peptide 40 μM, room temperature, 5 days, Congo Red Abs 541 nm
  IC50 for inhibition of fibrillogenesis: approximately 1.7 μg/mL

## Acriflavine neutral
[5]; clinically used dosage range
  toxicity: low toxicity
[5]; repetitive administrations for a prolonged period
  effect on hematopoietic system and liver: does not suppress the hematopoietic system, nor damage the liver
microorganisms
  concentration inhibiting the growth of microorganisms: 10^−4 to 10^−5 M
